From patent US20230399341A1, “7-PHENYL SUBSTITUTED 2-AMINOQUINAZOLINE INHIBITORS OF HPK1” (MERCK SHARP & DOHME LLC, priority 2020, published 2023)

Biological target: T1, Human HPK1, catalytic domain (Homo sapiens, UniProt Q92918)
T1 sequence (Q92918 1-346): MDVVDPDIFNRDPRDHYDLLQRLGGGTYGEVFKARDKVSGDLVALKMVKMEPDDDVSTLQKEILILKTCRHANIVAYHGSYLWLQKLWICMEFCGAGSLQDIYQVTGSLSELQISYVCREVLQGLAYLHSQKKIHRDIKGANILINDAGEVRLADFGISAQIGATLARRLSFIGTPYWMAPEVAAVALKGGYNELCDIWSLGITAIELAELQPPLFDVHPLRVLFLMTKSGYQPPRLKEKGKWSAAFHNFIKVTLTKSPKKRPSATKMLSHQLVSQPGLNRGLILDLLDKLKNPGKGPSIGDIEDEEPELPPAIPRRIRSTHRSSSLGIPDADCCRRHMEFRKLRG
Assay: HPK1-SLP76 TR-FRET Assay
Type: biochemical
Conditions: 75 pM HPK1, ATP 10 uM, SLP76 10 nM, 30 min pre-incubation, 60 min reaction

IC50	SMILES
0.0588 nM	COc1cc2c(cc1Nc1ncc3c(N)c(F)c(-c4cnc5c(c4C)NCCO5)c(Cl)c3n1)CN(C)CC21CC1 (single isomer, unassigned) [Compound 2-163, 8-chloro-6-fluoro-N~2~- (6′-methoxy-2′-methyl-2′,3′-dihydro-1′H-spiro[cyclopropane-1,4′-isoquinolin]-7′-yl)-7-(8-methyl-2,3-dihydro-1H-pyrido[2,3-b][1,4]oxazin-7-yl)quinazoline-2,5-diamine]
2.93 nM	Cc1c(-c2c(F)c(N)c3cnc(Nc4ccc5c(c4)CN(C)CC5)nc3c2Cl)cnc2c1NCCO2 (single isomer, unassigned) [Compound 2-179, (+ or −)-8-chloro-6-fluoro-7-(8-methyl-2,3-dihydro-1H-pyrido[2,3-b][1,4]oxazin-7-yl)-N~2~- (2-methyl-1,2,3,4-tetrahydroisoquinolin-7-yl)quinazoline-2,5-diamine]
0.0248 nM	Cc1c(-c2c(F)c(N)c3cnc(Nc4ccc5c(c4)CN(C)CC5)nc3c2Cl)cnc2c1NCCO2 (single isomer, unassigned) [Compound 2-180, (+ or −)-8-chloro-6-fluoro-7-(8-methyl-2,3-dihydro-1H-pyrido[2,3-b][1,4]oxazin-7-yl)-N~2~- (2-methyl-1,2,3,4-tetrahydroisoquinolin-7-yl)quinazoline-2,5-diamine]
1.05 nM	CCC1COC(=O)N1c1ccc2cnc(Nc3cc4c(cc3OC)CCN(C)C4)nc2c1 (single isomer, unassigned) [Compound 3-13, (S or R)-4-ethyl-3-{2-[(6-methoxy-2-methyl-1,2,3,4-tetrahydroisoquinolin-7-yl)amino]quinazolin-7-yl}-1,3-oxazolidin-2-one]
24.6 nM	CCC1COC(=O)N1c1ccc2cnc(Nc3cc4c(cc3OC)CCN(C)C4)nc2c1 (single isomer, unassigned) [Compound 3-14, (S or R)-4-ethyl-3-{2-[(6-methoxy-2-methyl-1,2,3,4-tetrahydroisoquinolin-7-yl)amino]quinazolin-7-yl}-1,3-oxazolidin-2-one]
3.24 nM	CCC1COC(=O)N1c1cc(N)c2cnc(Nc3cc4c(cc3OC)CCN(C)C4)nc2c1 (single isomer, unassigned) [Compound 3-15, (S or R)-3-{5-amino-2-[(6-methoxy-2-methyl-1,2,3,4-tetrahydroisoquinolin-7-yl)amino]quinazolin-7-yl}-4-ethyl-1,3-oxazolidin-2-one]
0.169 nM	CCC1COC(=O)N1c1cc(N)c2cnc(Nc3cc4c(cc3OC)CCN(C)C4)nc2c1 (single isomer, unassigned) [Compound 3-16, (S or R)-3-{5-amino-2-[(6-methoxy-2-methyl-1,2,3,4-tetrahydroisoquinolin-7-yl)amino]quinazolin-7-yl}-4-ethyl-1,3-oxazolidin-2-one]
531 nM	COc1cc2c(cc1Nc1ncc3ccc(NCC4CC(=O)N(C)C4)cc3n1)CN(C)CC2 (stereo in doubt) [Compound 3-48, (4S)-4-[({2-[(6-methoxy-2-meth-yl-1,2,3,4-tetrahydroisoquinolin-7-yl)amino]quinazolin-7-yl}-amino)methyl]-1-methylpyrrol-idin-2-one]
82.2 nM	COc1cc2c(cc1Nc1ncc3ccc(-c4ccc(NC(C)=O)nc4)cc3n1)CN(C)CC2 [Compound 1-18, N-(5-{2-[(6-methoxy-2-methyl-1,2,3,4-tetrahydroisoquinolin-7-yl)amino]quinazolin-7-yl}pyridin-2-yl)acetamide]
2.57 nM	COc1cc2c(cc1Nc1ncc3ccc(-c4cnc(N)nc4C)cc3n1)CN(C)CC2 [Compound 1-19, 7-(2-amino-4-methylpyrimidin-5-yl)-N-(6-methoxy-2-methyl-1,2,3,4-tetrahydroisoquinazolin-7-yl)quinazolin-2-amine]
4.61 nM	CCn1cc(-c2ccc3cnc(Nc4cc5c(cc4OC)CCN(C)C5)nc3c2)cn1 [Compound 1-20, 7-(1-ethyl-1H-pyrazol-4-yl)-N-(6-methoxy-2-methyl-1,2,3,4-tetrahydroisoquinolin-7-yl)quinazolin-2-amine]
294 nM	CNC(=O)c1ccc(-c2ccc3cnc(Nc4cc5c(cc4OC)CCN(C)C5)nc3c2)cn1 [Compound 1-21, 5-{2-[(6-methoxy-2-methyl-1,2,3,4-tetrahydroisoquinolin-7-yl)amino]quinazolin-7-yl}-N-methylpyridine-2-carboxamide]

The next lines start with the compound.

SMILES	IC50
COc1cc2c(cc1Nc1ncc3ccc(-c4ccccc4)cc3n1)CN(C)CC2 [Compound 1-1, N-(6-methoxy-2-methyl-1,2,3,4-tetrahydroisoquinolin-7-yl)-7-phenylquinazolin-2-amine]	140 nM
COc1cc2c(cc1Nc1ncc3ccc(-c4cnccc4C)cc3n1)CN(C)CC2 [Compound 1-2, N-(6-methoxy-2-methyl-1,2,3,4-tetrahydroisoquinolin-7-yl)-7-(4-methylpyridin-3-yl)quinazolin-2-amine]	26.2 nM
COc1cc2c(cc1Nc1ncc3ccc(-c4cncc(N)c4C)cc3n1)CN(C)CC2 [Compound 1-3, 7-(5-amino-4-methylpyridin-3-yl)-N-(6-methoxy-2-methyl-1,2,3,4-tetrahydroisoquinolin-7-yl)quinazolin-2-amine]	1.52 nM
COc1cc2c(cc1Nc1ncc3ccc(-c4cnc5c(c4C)NCCO5)cc3n1)CN(C)CC2 [Compound 1-4, N-(6-methoxy-2-methyl-1,2,3,4-tetrahydroisoquinolin-7-yl)-7-(8-methyl-2,3-dihydro-1H-pyrido[2,3-b][1,4]oxazin-7-yl)quinazolin-2-amine]	1.51 nM
COc1cc2c(cc1Nc1ncc3ccc(-c4c(C)cccc4F)cc3n1)CN(C)CC2 [Compound 1-5, 7-(2-fluoro-6-methylphenyl)-N-(6-methoxy-2-methyl-1,2,3,4-tetrahydroisoquinolin-7-yl)quinazolin-2-amine]	230 nM
COc1cc2c(cc1Nc1ncc3ccc(-c4cccc5c4CCNC5)cc3n1)CN(C)CC2 [Compound 1-6, N-(6-methoxy-2-methyl-1,2,3,4-tetrahydroisoquinolin-7-yl)-7-(1,2,3,4-tetrahydroisoquinolin-5-yl)quinazolin-2-amine]	92.2 nM
COc1cc2c(cc1Nc1ncc3ccc(-c4cc(F)ccc4CN)cc3n1)CN(C)CC2 [Compound 1-7, 7-[2-(aminomethyl)-5-fluorophenyl]-N-(6 methoxy-2-methyl-1,2,3,4-tetrahydroisoquinolin-7-yl)quinazolin-2-amine]	245 nM
COc1cc2c(cc1Nc1ncc3ccc(-c4ccc(F)cc4CN)cc3n1)CN(C)CC2 [Compound 1-8, 7-[2-(aminomethyl)-4-fluorophenyl]-N-(6-methoxy-2-methyl-1,2,3,4-tetrahydroisoquinolin-7-yl)quinazolin-2-amine]	403 nM
COc1cc2c(cc1Nc1ncc3ccc(-c4cccc5c4CNCC5)cc3n1)CN(C)CC2 [Compound 1-9, N-(6-methoxy-2-methyl-1,2,3,4-tetrahydroisoquinolin-7-yl)-7-(1,2,3,4-tetrahydroisoquinolin-8-yl)quinazolin-2-amine]	42.9 nM
COc1cc2c(cc1Nc1ncc3ccc(-c4ccccc4N4CCOC4=O)cc3n1)CN(C)CC2 [Compound 1-10, 3-(2-{2-[(6-methoxy-2-methyl-1,2,3,4-tetrahydroisoquinolin-7-yl)amino]quinazolin-7-yl}phenyl)-1,3-oxazolidin-2-one]	27 nM
COc1cc2c(cc1Nc1ncc3ccc(-c4cc(C)ccc4N4CCOC4=O)cc3n1)CN(C)CC2 [Compound 1-11, 3-(2-{2-[(6-methoxy-2-methyl-1,2,3,4-tetrahydroisoquinolin-7-yl)amino]quinazolin-7-yl}-4-methylphenyl)-1,3-oxazolidin-2-one]	179 nM
COc1cc2c(cc1Nc1ncc3ccc(-c4ccc(C(F)(F)C(N)=O)nc4)cc3n1)CN(C)CC2 [Compound 1-12, 2,2-difluoro-2-(5-{2-[(6-methoxy-2-methyl-1,2,3,4-tetrahydroisoquinolin-7-yl)amino]quinazolin-7-yl}pyridin-2-yl)acetamide]	341 nM
COc1cc2c(cc1Nc1ncc3ccc(-c4cnn(CCO)c4)cc3n1)CN(C)CC2 [Compound 1-13, 2-(4-{2-[(6-methoxy-2-methyl-1,2,3,4-tetrahydroisoquinazolin-7-yl)amino]quinazolin-7-yl}-1H-pyrazol-1-yl)ethan-1-ol]	7.7 nM
COc1cc2c(cc1Nc1ncc3ccc(-c4cncc(C(C)(C)O)c4)cc3n1)CN(C)CC2 [Compound 1-14, 2-(5-{2-[(6-methoxy-2-methyl-1,2,3,4-tetrahydroisoquinolin-7-yl)amino]quinazolin-7-yl}pyridin-3-yl)propan-2-ol]	55.3 nM
COc1cc2c(cc1Nc1ncc3ccc(-c4cnc(C(C)(C)O)s4)cc3n1)CN(C)CC2 [Compound 1-15, 2-(5-{2-[(6-methoxy-2-methyl-1,2,3,4-tetrahydroisoquinolin-7-yl)amino]quinazolin-7-yl}-1,3-thiazol-2-yl)propan-2-ol]	42.7 nM
COc1cc2c(cc1Nc1ncc3ccc(-c4ccn5ncnc5c4)cc3n1)CN(C)CC2 [Compound 1-16, N-(6-methoxy-2-methyl-1,2,3,4-tetrahydroisoquinolin-7-yl)-7-([1,2,4]triazolo[1,5-a]pyridin-7-yl)quinazolin-2-amine]	154 nM
COc1cncc(-c2ccc3cnc(Nc4cc5c(cc4OC)CCN(C)C5)nc3c2)c1 [Compound 1-17, N-(6-methoxy-2-methyl-1,2,3,4-tetrahydroisoquinolin-7-yl)-7-(5-methoxypyridin-3-yl)quinazolin-2-amine]	19.1 nM
